US5871779A, “Treatment of arthropathies with vanadate compounds or analogues thereof” (Mount Sinai Hospital Corporation, priority 1996, dated 1999)

How the values were obtained:
articular cartilage = assay: electron microscopy of articular cartilage of arthritic rats; assay type: in vivo, rat
Experimental: The synovium of rats from each group was examined by electron microscopy. Rats in each group were selected on Day 5 and Day 18 post arthritis onset to study joint morphology. Scanning and Transmission electron microscopy was performed on selected glutaraldehyde fixed joints. One ankle joint of each arthritic control and BMOV-treated rat was removed, critical point dried, and gold sputter-coated for scanning electron microscopy on Day 18 post arthritis onset to examine the trochlear surfaces. Conventional transmission electron microscopy was also performed on the articular cartilage of the trochlear surfaces of naive, arthritic control, and BMOV-treated animals using a Jeol 1200EX.

KB8, KB8-5 and KB85-11 = assay: killing of drug resistant ovarian cancer cell lines KB8, KB8-5 and KB85-11; assay type: cell-based; conditions: 0-50 μM, 48 hours
Experimental: The effect of orthovanadate on three ovarian cancer cell lines, KB8, KB8-5 and KB85-11, which have increasing drug resistance, respectively, relative to the parent cell line, KB3-1 was compared. These drug resistant cell lines are not killed by several classes of chemotherapeutic agents such as colchicine, vinblastine and doxorubicin. In the study, cell lines of increasing drug resistance (KB8, KB8-5 and KB-85-11) and the parent cell line, KB3-1, were incubated in media (DMEM) containing 0-50 μM orthovanadate for 48 hours. The cells were harvested and the number of viable cells determined.

MCF7 (WT) = assay: MTT cytotoxicity assay, MCF7 (WT); assay type: cell-based, human; conditions: MCF7 (WT), 72 hours; read-out: IC50 Value
Experimental: (§1) The relative cytotoxicity of various compounds on tumor cell lines was investigated as follows. Cytotoxicity was measured by the MTT microculture tetrazolium colorimetric assay for all cell lines. The relative cytotoxicity of Na3 VO4 and VOSO4 was investigated using the following tumor cell lines: P388(WT) murine leukemia, P388 (ADR) murine leukemia, Lewis murine lung, MCF7 (WT) human breast, […] human lung, K562 human erythroleukemia, A431 human epidermal, LS180 human colon and SK-OV-3 human ovarian. The relative cytotoxicity of doxorubicin, Na3 VO4 and VOSO4 was investigated using the following tumor cell lines: P388(WT) murine leukemia, P388 (ADR) murine leukemia, MCF7(WT) human breast and MCF7 (ADR) human breast. The relative cytotoxicity of BMOV, BEOV and naglivan was investigated using the following tumor cell lines: P388(WT) murine leukemia, P388 (ADR) murine leukemia, Lewis murine lung, H460 human lung, K562 human erythroleukemia, and SK-OV-3 human ovarian.
The cells were plated (number of cells/well was different from cell line to cell depending on the dividing rate) in a 96-well microculture plate 24 hours prior to the delivery of the vanadium compounds. Serial concentrations of solutions of the test compounds (0.05-100 μM) were delivered to the corresponding wells. A blank column (without cells) and a control column (with cells without vanadium) were left. The cells were incubated for 72 hours continuously. An MTT solution was added to each well after this incubation period and the cells were incubated for 4 more hours for the completion of the dyeing process. The medium was removed find DMSO was added to each well. The absorbance of each well was read with a Titertek Multiskan (310C) spectrophotometer at 570 nm. The percentage of the absorbance of each vanadium concentration relative to the control calculated and the value of the 50% growth inhibition concentration (IC50) was obtained from the % control versus concentration plot. Each assay was repeated three times and the reported IC50 values were the mean of these three runs.

tumor growth = tumor growth in vivo, orthovanadate and N-acetylcysteine (Example 7); design: species or system mice
Experimental: Since N-acetylcysteine is converted to glutathione in cells, higher levels of glutathione may not only reduce orthovanadate induced toxicity but may also reduce tumor formation.
Twenty mice were injected subcutaneously with 2×10^5 cells on Day 1. At day 4, the mice were divided into four groups of five mice. Group one (control) received subcutaneous injections of 50 μl of water. Group two received daily intraperitoneal injections of 50 μl of 250 mM N-acetylcysteine. Group three received daily subcutaneous injections of 50 μl of 10 mg/ml of orthovanadate. Group four received daily intraperitoneal injections of 50 μl of […] N-acetylcysteine and 20 minutes later received 50 μl of subcutaneous injection of 50 μl of 10 mg/ml of orthovanadate. On day 10 the treatment was stopped. The animals were sacrificed on Day 13 and analyzed for tumor growth.

A431 = assay: MTT cytotoxicity assay, A431; assay type: cell-based, human; conditions: A431, 72 hours
Experimental: as §1
The cells were plated (number of cells/well was different from cell line to cell depending on the dividing rate) in a 96-well microculture plate 24 hours prior to the delivery of the vanadium compounds. Serial concentrations of solutions of the test compounds (0.05-100 μM) were delivered to the corresponding wells. […] The absorbance of each well was read with a Titertek Multiskan (310C) spectrophotometer at 570 nm. […]

MDAY-D2 tumor = MDAY-D2 tumor growth in vivo, orthovanadate s.c. (Example 6A); design: species or system mice; conditions: 10 mg/ml, 50 μl daily s.c., day 14
From the text: In order to examine the ability of vanadyl compounds to reduce tumor formation, growth and metastases, a specific animal model which allows investigation of all of these processes in the same animal was chosen. This model involves the injection of a metastatic haematopoietic cell line, MDAY-D2, into mice subcutaneously. These cells form a tumor at the site of injection and its size can be easily determined. In addition, these cells metastasize to the liver and metastases can be detected histologically after day 17 to 19. This model provides a very sensitive and reproducible approach to investigate the effect of vanadyl compounds on tumor growth and metastases.
Using the animal model described above, the effect of subcutaneous administration of orthovanadate on tumor growth was investigated. A total of 15 mice were injected subcutaneously with 1×10^5 MDAY-D2 cells on Day 1. On Day 5, small tumors could be observed at the site of injection. Five mice were injected daily with 50 μl of water alone and 10 mice were injected daily with water containing 10 mg/ml orthovanadate. On day 14, the mice were sacrificed. The tumors were removed from all the animals, photographed, and weighed. FIG. 11 compares sizes of tumors from two untreated and two orthovanadate treated mice. […] In animals treated with water alone, four mice had tumors weighing between 1.18 and 1.68 gms.

[1] = test system: non-proliferating chondrocytes; assay: viability of non-proliferating chondrocytes (high cell density); assay type: cell-based; conditions: 0-50 μM, 48 hours
Experimental: In order to compare the effect of orthovanadate on non-proliferating and proliferating chondrocytes, chondrocytes were plated at both high cell density (2×10^6 to 4×10^6 cells/per well on a six well plate) (nonproliferating) and at a lower cell density (5×10^5 to 1×10^6 cells/per well on a six well plate) (proliferating) and then maintained for 48 hours. The cells were then incubated in media (HAMS F12) containing 0-50 μM Orthovanadate for an additional 48 hours. The cells were harvested and the number of viable cells determined.

Row | Compound | trochlear surface by scanning electron micrograph (articular cartilage; Day 18) | articular cartilage by transmission electron micrograph (articular cartilage; rat, in vivo) | cartilage damage of joints (articular cartilage; scanning and transmission electron micrographs) | killing of drug resistant cell lines (KB8, KB8-5 and KB85-11) | IC50 (MCF7 (WT)) | detectable tumors (tumor growth; day 13) | animal deaths (tumor growth; orthovanadate 50 μl 10 mg/ml s.c. daily) | IC50 (A431) | detectable tumors (MDAY-D2 tumor) | tumor size (MDAY-D2 tumor; five mice) | effect on chondrocytes plated at high cell density [1]
1 | Cc1occc(=O)c1[O-].Cc1occc(=O)c1[O-].[O]=[V+2] [BMOV, bis(methylmaltolato) oxovanadium (IV)] | normal trochlear surface | indistinguishable from the naive animal | little cartilage damage and intact cartilage | – | – | – | – | – | – | – | –
2 | [Na+].[Na+].[Na+].[O]=[V]([O-])([O-])[O-] [orthovanadate, sodium orthovanadate] | – | – | – | equally effective | 8.5 µM | two had no detectable tumors | One orthovanadate treated animal died | 7.6 µM | 2 mice did not have detectable tumors | less than 0.16 gms | did not effect
